Assays:
[1] = test system: grayed hair (melanocytes); experiment: Inhibition of generation of grayed hair in stressed black mice; format: in vivo; conditions: Table V, 0.05% test compound in hair tonic, 0.1 ml twice a day, 1 month, control 17.1
Procedure: It is known that stress is one of the causes of graying of the hair. […] Moreover, the stability of the composition with time was also estimated.
(§1) One month thereafter, regenerated hair was collected from a constant area and the rate (%) of generated grayed hair to all the number of hair collected was estimated. In addition, the aforementioned hair tonic type preparations were allowed to stand at 30° C. for 3 months and the residual amount of the test compounds therein was examined by liquid chromatography as well as the degree of change in smell was also evaluated by means of sensory test.
as §1, with “compositions” for “hair tonic type preparations”, “by” for “by means of”, “test. […] In addition, the abbreviation P means the averaged added molar number of ethylene oxide residues.” for “test.”

[2] = Stability: residual amount of test compound after standing at 30° C. for 3 months, liquid chromatography; format: physicochemical; conditions: for remaining at 2190 h: Table V, 0.05% in hair tonic, 30° C., 3 months, read-out: Stability Residue(%)
Procedure: as §1
as §1, with “compositions” for “hair tonic type preparations”, “by” for “by means of”, “test. […] In addition, the abbreviation P means the averaged added molar number of ethylene oxide residues.” for “test.”

[3] = Sensory test: degree of change in smell after standing at 30° C. for 3 months;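 for Stability S.E. (Sensory Evaluation): double circle means no smell deterioration on a four-grade scale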; format: physicochemical; conditions: for Stability S.E. (Sensory Evaluation): Table V, 0.05% in hair tonic, 30° C., 3 months
Procedure: as §1
as §1, with “compositions” for “hair tonic type preparations”, “by” for “by means of”, “test. […] In addition, the abbreviation P means the averaged added molar number of ethylene oxide residues.” for “test.”

[4] = test system: grayed hair; experiment: Half-Head technique application to scalp of men having grayed hair; format: in vivo, men (40 to 60 years old)
Procedure: Then, the effects of preventing graying of the hair and restoring grayed hair to its natural color were evaluated by comparing the conditions of the portions observed before and after the application of Samples and the results obtained were listed in the following Table VIII. […]
Then, the effectiveness of the hair cream of the invention and that of Comp.

stability (in words) ([2]; Example 7, hair cream)	remaining at 2190 h ([2]; hair tonic)	Stability S.E. (Sensory Evaluation) [3]	stability (in words) ([2]; Example 6, hair tonic)	Structure (SMILES)	Rate of Grayed Hair (%) [1]	quality deterioration such as giving out of bad smell ([3]; Example 7, hair cream)	effect of preventing graying of the hair and restoring grayed hair to its natural color (in words) ([4]; Example 7, hair cream as in Example 5)	quality deterioration such as giving out of bad smell ([3]; Example 6, hair tonic)	effect of preventing graying of the hair and restoring grayed hair to its natural color (in words) ([4]; Example 6, hair tonic as in Example 3)	effect of preventing graying of the hair and restoring grayed hair to its natural color (in words) ([4]; Examples 3 to 5, Half-Head, men, 3 months)
stable	99.9%	.circleincircle.	–	CCCCSc1nc2c(N)ncnc2n1[C@@H]1O[C@@H]2COP(=O)(O)O[C@H]2[C@H]1O [8-butylthio cAMP-Na]	6.5%	did not cause quality deterioration such as giving out of bad smell	the same effect of preventing graying of the hair and restoring grayed hair to its natural color as in Example 5	–	–	–
–	99.7%	.circleincircle.	stable	Nc1ncnc2c1nc(O)n2[C@@H]1O[C@@H]2COP(=O)(O)O[C@H]2[C@H]1O [8-hydroxy cAMP-Na]	5.6%	–	–	did not cause quality deterioration such as giving out of bad smell	the same effect of preventing graying of the hair and restoring grayed hair to its natural color as in Example 3	–
–	99.9%	.circleincircle.	–	COc1nc2c(N)ncnc2n1[C@@H]1O[C@@H]2COP(=O)(O)O[C@H]2[C@H]1O [8-methoxy cAMP-Na]	4.5%	–	–	–	–	remarkable effects of preventing graying of the hair and restoring grayed hair to its natural color
